Results: patent US20080031982A1 (Metaproteomics, LLC, priority 2006, published 2008)

Tests used:
Assay in all cases: KinaseProfiler Assay
CDK1/cyclinB = CDK1/cyclinB (Homo sapiens, UniProt P06493)
CDK2/cyclinA = CDK2/cyclinA (Homo sapiens, UniProt P24941)
CDK5/p35 = CDK5/p35 (Homo sapiens, UniProt Q00535)
EphA8 = target: T1, EphA8 (Homo sapiens, UniProt P29322)
T1 sequence (P29322 28-1005): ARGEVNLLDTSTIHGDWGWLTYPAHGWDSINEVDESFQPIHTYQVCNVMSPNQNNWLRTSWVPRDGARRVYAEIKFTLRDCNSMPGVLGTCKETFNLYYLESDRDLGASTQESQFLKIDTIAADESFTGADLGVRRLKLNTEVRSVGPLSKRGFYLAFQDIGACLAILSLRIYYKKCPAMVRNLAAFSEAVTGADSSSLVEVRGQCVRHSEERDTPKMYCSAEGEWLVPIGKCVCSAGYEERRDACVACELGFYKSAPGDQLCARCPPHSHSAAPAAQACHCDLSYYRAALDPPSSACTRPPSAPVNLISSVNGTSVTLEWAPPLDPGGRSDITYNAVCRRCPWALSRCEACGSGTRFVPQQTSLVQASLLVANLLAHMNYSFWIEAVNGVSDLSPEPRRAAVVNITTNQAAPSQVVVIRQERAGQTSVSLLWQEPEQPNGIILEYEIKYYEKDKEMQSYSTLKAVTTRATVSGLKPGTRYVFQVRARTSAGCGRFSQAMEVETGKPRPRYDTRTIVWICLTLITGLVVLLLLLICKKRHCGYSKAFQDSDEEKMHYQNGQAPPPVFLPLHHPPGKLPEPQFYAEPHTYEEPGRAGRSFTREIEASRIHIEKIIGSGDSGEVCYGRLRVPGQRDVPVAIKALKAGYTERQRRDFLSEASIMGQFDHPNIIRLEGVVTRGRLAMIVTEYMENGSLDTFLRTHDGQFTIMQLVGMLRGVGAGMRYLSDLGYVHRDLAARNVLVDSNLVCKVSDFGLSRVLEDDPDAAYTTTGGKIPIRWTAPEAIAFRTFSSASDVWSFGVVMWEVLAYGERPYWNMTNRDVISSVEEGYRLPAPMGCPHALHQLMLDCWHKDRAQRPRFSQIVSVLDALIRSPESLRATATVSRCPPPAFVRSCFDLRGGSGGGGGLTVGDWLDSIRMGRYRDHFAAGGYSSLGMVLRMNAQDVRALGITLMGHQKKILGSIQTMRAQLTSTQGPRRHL

MSK2 = MSK2 (Homo sapiens, UniProt O75676)
MSSK1 = MSSK1 (Homo sapiens, UniProt Q9UPE1)
PKA = PKA (Homo sapiens, UniProt P17612)
PKBα = PKBα (Homo sapiens, UniProt P31749)
PKCβII = PKCβII (Homo sapiens, UniProt P05771)
Ros = Ros (Homo sapiens, UniProt P08922)
TrkB = TrkB (Homo sapiens, UniProt Q16620)
CK1γ2 = CK1γ2 (Homo sapiens, UniProt P78368)
Sequence of CK1γ2 (P78368 whole entry): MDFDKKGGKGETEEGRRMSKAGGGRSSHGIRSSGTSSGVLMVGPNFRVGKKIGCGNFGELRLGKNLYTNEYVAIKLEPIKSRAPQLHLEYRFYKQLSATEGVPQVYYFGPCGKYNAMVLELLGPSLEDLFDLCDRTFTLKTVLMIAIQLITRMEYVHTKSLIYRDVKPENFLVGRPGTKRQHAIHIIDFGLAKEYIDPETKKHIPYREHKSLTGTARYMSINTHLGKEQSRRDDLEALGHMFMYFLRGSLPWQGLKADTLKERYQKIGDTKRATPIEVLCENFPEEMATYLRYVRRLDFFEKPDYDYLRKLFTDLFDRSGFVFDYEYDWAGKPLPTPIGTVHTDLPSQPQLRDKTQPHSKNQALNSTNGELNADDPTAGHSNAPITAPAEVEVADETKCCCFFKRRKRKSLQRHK

Sequence of TrkB (Q16620 32-822): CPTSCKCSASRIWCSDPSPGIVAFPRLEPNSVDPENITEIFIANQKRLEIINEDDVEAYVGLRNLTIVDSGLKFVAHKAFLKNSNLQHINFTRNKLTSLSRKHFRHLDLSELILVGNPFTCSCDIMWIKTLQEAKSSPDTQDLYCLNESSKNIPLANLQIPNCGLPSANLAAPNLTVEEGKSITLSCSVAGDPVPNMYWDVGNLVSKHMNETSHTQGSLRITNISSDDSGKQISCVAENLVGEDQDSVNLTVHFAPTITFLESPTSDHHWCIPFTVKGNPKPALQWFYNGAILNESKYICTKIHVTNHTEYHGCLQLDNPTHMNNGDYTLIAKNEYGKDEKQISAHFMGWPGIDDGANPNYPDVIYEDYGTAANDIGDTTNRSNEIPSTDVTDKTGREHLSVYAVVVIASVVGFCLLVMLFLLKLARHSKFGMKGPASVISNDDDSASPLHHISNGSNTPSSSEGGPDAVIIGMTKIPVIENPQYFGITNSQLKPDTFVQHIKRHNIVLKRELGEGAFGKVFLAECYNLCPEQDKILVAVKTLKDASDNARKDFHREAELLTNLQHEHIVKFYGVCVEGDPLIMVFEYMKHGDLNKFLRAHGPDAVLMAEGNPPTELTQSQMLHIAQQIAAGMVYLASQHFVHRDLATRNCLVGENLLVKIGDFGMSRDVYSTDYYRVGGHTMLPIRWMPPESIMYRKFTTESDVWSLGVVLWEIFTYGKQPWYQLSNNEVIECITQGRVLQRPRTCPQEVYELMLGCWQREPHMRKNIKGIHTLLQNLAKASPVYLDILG
Sequence of CDK5/p35 (Q00535 whole entry): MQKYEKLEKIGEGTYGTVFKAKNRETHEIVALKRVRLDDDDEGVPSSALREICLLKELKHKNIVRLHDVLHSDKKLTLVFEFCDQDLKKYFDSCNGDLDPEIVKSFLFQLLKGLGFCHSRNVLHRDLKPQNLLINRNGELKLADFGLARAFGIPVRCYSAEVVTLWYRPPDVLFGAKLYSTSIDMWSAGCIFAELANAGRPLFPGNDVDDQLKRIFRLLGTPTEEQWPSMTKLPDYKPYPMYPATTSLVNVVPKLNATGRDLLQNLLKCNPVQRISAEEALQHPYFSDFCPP
Sequence of CDK5/p35 (Q15078 whole entry partner): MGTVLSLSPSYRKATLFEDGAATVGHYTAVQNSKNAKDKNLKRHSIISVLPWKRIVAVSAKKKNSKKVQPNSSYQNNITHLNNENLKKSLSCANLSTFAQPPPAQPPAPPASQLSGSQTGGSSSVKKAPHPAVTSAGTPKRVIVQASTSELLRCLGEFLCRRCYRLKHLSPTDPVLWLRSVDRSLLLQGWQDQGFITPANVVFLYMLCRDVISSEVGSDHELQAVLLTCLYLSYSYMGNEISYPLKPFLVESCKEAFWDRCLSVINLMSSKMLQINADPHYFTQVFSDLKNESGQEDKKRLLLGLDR
Sequence of CDK1/cyclinB (P06493 whole entry): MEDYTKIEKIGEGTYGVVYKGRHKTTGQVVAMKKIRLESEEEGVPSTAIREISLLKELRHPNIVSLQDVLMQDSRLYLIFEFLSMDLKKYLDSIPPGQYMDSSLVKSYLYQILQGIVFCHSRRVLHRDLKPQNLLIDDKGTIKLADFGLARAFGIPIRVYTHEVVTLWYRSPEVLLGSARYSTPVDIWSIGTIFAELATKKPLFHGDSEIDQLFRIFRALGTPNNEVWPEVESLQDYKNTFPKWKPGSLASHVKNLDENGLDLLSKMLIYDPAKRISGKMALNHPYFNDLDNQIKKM
Sequence of CDK1/cyclinB (P14635 whole entry partner): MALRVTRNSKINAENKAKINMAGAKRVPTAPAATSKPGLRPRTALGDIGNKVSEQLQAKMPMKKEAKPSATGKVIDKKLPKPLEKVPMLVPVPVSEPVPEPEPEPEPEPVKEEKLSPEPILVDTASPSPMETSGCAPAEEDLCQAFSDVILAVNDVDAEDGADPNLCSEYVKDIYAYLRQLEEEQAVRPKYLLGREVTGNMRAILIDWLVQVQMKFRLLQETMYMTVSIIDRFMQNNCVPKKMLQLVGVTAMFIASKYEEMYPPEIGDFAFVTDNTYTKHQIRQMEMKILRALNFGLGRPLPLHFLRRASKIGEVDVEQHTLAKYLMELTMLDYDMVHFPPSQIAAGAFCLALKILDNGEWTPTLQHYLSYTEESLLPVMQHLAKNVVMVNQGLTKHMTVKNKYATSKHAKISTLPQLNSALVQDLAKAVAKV
Sequence of PKBα (P31749 whole entry): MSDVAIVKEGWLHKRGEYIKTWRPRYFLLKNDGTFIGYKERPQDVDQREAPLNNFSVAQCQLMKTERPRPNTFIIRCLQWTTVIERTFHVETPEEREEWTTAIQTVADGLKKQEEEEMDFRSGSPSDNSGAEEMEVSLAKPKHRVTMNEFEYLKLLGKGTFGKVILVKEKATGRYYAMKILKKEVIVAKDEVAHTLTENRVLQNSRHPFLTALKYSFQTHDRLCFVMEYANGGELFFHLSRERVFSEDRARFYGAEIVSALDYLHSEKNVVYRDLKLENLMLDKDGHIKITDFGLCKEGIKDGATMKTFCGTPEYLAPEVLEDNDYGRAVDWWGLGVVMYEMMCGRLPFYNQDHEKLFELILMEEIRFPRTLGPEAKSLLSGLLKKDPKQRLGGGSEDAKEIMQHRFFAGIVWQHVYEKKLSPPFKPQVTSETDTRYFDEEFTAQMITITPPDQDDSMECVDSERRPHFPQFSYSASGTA
Sequence of MSK2 (O75676 whole entry): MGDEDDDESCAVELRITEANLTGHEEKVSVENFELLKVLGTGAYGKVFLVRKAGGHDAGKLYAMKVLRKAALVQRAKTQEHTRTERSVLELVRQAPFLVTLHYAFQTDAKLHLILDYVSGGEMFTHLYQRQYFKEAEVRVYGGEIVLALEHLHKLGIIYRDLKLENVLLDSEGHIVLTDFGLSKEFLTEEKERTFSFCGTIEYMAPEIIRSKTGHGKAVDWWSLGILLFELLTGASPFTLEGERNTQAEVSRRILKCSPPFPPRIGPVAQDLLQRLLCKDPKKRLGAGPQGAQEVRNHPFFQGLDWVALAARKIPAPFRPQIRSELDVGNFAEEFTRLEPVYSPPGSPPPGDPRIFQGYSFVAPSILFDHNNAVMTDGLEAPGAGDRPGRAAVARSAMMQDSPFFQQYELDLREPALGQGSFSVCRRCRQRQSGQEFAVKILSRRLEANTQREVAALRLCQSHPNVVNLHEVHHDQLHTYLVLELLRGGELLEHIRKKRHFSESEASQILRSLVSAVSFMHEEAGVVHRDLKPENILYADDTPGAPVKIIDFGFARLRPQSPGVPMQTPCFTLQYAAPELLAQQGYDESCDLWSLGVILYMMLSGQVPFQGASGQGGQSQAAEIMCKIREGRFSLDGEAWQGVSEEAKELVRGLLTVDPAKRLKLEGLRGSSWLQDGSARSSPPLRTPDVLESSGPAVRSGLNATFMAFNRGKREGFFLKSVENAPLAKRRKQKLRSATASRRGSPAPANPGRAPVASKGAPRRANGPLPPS
Sequence of PKCβII (P05771 1-673 isoform P05771-2): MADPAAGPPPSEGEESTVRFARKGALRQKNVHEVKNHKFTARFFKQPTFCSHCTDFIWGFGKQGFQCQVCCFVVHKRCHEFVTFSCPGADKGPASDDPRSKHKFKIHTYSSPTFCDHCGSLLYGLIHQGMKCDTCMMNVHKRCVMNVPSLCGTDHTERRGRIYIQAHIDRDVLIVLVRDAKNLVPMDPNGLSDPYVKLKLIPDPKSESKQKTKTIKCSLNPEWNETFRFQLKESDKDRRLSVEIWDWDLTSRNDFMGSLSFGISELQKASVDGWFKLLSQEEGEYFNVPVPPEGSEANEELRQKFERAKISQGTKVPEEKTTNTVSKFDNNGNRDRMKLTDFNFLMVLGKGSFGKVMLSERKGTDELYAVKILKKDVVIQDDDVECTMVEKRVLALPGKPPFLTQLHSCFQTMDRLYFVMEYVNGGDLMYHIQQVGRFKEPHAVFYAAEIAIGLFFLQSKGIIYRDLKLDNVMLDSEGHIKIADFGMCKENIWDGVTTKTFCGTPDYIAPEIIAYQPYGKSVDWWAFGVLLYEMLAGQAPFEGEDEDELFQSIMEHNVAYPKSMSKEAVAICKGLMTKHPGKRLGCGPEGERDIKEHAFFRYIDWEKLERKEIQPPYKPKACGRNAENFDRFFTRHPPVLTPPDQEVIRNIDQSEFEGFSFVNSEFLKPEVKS

## COc1cc(O)c(CC=C(C)C)c(O)c1C(=O)/C=C/c1ccc(O)cc1 [Xanthohumol, xanthohumol]
CDK1/cyclinB; 1 ug/ml
  Kinase activity, % of Control: 118 % of Control
CDK1/cyclinB; 5 ug/ml
  Kinase activity, % of Control: 103 % of Control
CDK1/cyclinB; 25 ug/ml
  Kinase activity, % of Control: 46 % of Control
CDK1/cyclinB; 50 ug/ml
  Kinase activity, % of Control: 18 % of Control
CDK2/cyclinA; 1 ug/ml
  Kinase activity, % of Control: 107 % of Control
CDK2/cyclinA; 5 ug/ml
  Kinase activity, % of Control: 96 % of Control
CDK2/cyclinA; 25 ug/ml
  Kinase activity, % of Control: 57 % of Control
CDK2/cyclinA; 50 ug/ml
  Kinase activity, % of Control: 6 % of Control
CDK5/p35; 1 ug/ml
  Kinase activity, % of Control: 103 % of Control
CDK5/p35; 5 ug/ml
  Kinase activity, % of Control: 102 % of Control
CDK5/p35; 25 ug/ml
  Kinase activity, % of Control: 41 % of Control
CDK5/p35; 50 ug/ml
  Kinase activity, % of Control: 44 % of Control
EphA8; 1 ug/ml
  Kinase activity, % of Control: 103 % of Control
EphA8; 5 ug/ml
  Kinase activity, % of Control: 92 % of Control
EphA8; 25 ug/ml
  Kinase activity, % of Control: 29 % of Control
EphA8; 50 ug/ml
  Kinase activity, % of Control: 19 % of Control
MSK2; 1 ug/ml
  Kinase activity, % of Control: 126 % of Control
MSK2; 5 ug/ml
  Kinase activity, % of Control: 61 % of Control
MSK2; 25 ug/ml
  Kinase activity, % of Control: 8 % of Control
MSK2; 50 ug/ml
  Kinase activity, % of Control: 19 % of Control
MSSK1; 1 ug/ml
  Kinase activity, % of Control: 47 % of Control
MSSK1; 5 ug/ml
  Kinase activity, % of Control: 11 % of Control
MSSK1; 25 ug/ml
  Kinase activity, % of Control: 7 % of Control
MSSK1; 50 ug/ml
  Kinase activity, % of Control: 5 % of Control
PKA; 1 ug/ml
  Kinase activity, % of Control: 105 % of Control
PKA; 5 ug/ml
  Kinase activity, % of Control: 109 % of Control
PKA; 25 ug/ml
  Kinase activity, % of Control: 98 % of Control
PKA; 50 ug/ml
  Kinase activity, % of Control: 21 % of Control
PKBα; 1 ug/ml
  Kinase activity, % of Control: 102 % of Control
PKBα; 25 ug/ml
  Kinase activity, % of Control: 18 % of Control
PKBα; 50 ug/ml
  Kinase activity, % of Control: 5 % of Control
PKCβII; 1 ug/ml
  Kinase activity, % of Control: 108 % of Control
PKCβII; 5 ug/ml
  Kinase activity, % of Control: 108 % of Control
PKCβII; 25 ug/ml
  Kinase activity, % of Control: 71 % of Control
PKCβII; 50 ug/ml
  Kinase activity, % of Control: 79 % of Control
Ros; 1 ug/ml
  Kinase activity, % of Control: 101 % of Control
Ros; 5 ug/ml
  Kinase activity, % of Control: 99 % of Control
Ros; 25 ug/ml
  Kinase activity, % of Control: 85 % of Control
Ros; 50 ug/ml
  Kinase activity, % of Control: 94 % of Control
TrkB; 1 ug/ml
  Kinase activity, % of Control: 95 % of Control
TrkB; 5 ug/ml
  Kinase activity, % of Control: 89 % of Control
TrkB; 25 ug/ml
  Kinase activity, % of Control: 58 % of Control
TrkB; 50 ug/ml
  Kinase activity, % of Control: 3 % of Control
CK1γ2; 1 ug/ml
  Kinase activity, % of Control: 92 % of Control
CK1γ2; 5 ug/ml
  Kinase activity, % of Control: 48 % of Control
CK1γ2; 25 ug/ml
  Kinase activity, % of Control: 30 % of Control
CK1γ2; 50 ug/ml
  Kinase activity, % of Control: 12 % of Control
